Results from US20080305186A1, “Method and Composition for the Treatment of Cardiac Hypertrophy” (BOARD OF REGENTS, THE UNIVERSITY OF TEXAS SYSTEM, priority 2007, published 2008).

Tested on: cardiac gene expression
Test: Microarray analysis of cardiac gene expression (GeneChip Mouse Genome 430 2.0)
Type: in vivo, mice
Experimental: Microarray Sample Preparation and Analysis. Animal hearts were rapidly removed, and the atria and right ventricles were cut and immediately plunged into TRIzol Reagent (Life Technologies). Total RNA was isolated following the manufacturer's instructions, purified by phenol-chloroform extraction and then ethanol precipitation, and 20 μg further processed for microarray analysis. Briefly, cDNA synthesis, in vitro transcription, and labeling and fragmentation to produce the oligonucleotide probes were performed as instructed by the GeneChip manufacturer (Affymetrix). The probes were first hybridized to a test array (Affymetrix) and then to the GeneChip Mouse Genome 430 2.0 Array, using the GeneChip Hybridization Oven 640. The chips were washed in a GeneChip Fluidics Station 450 (Affymetrix), and the results were visualized with a GeneChip G7 scanner (Affymetrix). RMA normalization, pairwise comparisons, Student's t test and Benjamini and Hochberg correction were subsequently performed using GeneSifter (VizX Labs, Seattle, Wash.) and Spotfire DecisionSite 8.3 (Spotfire, Inc., Somerville, Mass.).
Effects on Gene Expression Profile. […] One mouse heart was used for each array, and was performed in triplicate, generating a total of 12 arrays. GeneSifter was used to perform RMA normalization, pairwise comparisons of averaged signal intensity values, and Student's t-test with Benjamini and Hochberg correction, and Spotfire was used to perform pairwise comparisons. […] Additionally, genes that were altered between any two N or cardiac hypertrophy samples were removed, as these alterations most likely represented normal variations between mice.

[1] = mouse heart, vs isoproterenol only (CH), CH vs normal 7.4
[2] = mouse heart, vs isoproterenol only (CH), CH vs normal −1.7
[3] = mouse heart, vs isoproterenol only (CH), CH vs normal −1.8
[4] = mouse heart, vs isoproterenol only (CH), CH vs normal −1.9
[5] = mouse heart, vs isoproterenol only (CH), CH vs normal −2.0
[6] = mouse heart, vs isoproterenol only (CH), CH vs normal −2.1
[7] = mouse heart, vs isoproterenol only (CH), CH vs normal −2.4
[8] = mouse heart, vs isoproterenol only (CH), CH vs normal −2.5
[9] = mouse heart, vs isoproterenol only (CH), CH vs normal −2.6
[10] = mouse heart, vs isoproterenol only (CH), CH vs normal −2.7
[11] = mouse heart, vs isoproterenol only (CH), CH vs normal −2.9
[12] = mouse heart, vs isoproterenol only (CH), CH vs normal −3.0
[13] = mouse heart, vs isoproterenol only (CH), CH vs normal −3.2
[14] = mouse heart, vs isoproterenol only (CH), CH vs normal −3.3

NC(=O)N1c2ccccc2C=Cc2ccccc21 [carbamazepine]
FC Membrane-spanning 4-domains, subfamily A, member 6d (Ms4a6d), NM_026835 (mouse heart, vs isoproterenol only (CH), CH vs normal 6.4): −1.6 fold | FC Proteoglycan 4 (megakaryocyte stimulating factor, articular superficial zone protein) (Prg4), NM_021400 (mouse heart, vs isoproterenol only (CH), CH vs normal 6.8): −1.5 fold | FC CCAATenhaer binding protein (CEBP), delta (Cebpd), BB831146 [1]: −1.6 fold | FC Ca(2+)-sensitive chloride channel 2 (Clca2), AF108501 [1]: −2.0 fold | FC Lysyl oxidase (Lox), M65143 [1]: −2.1 fold | FC Cytokine inducible SH2-containing protein 3 (Socs3), BB831725 (mouse heart, vs isoproterenol only (CH), CH vs normal 8.2): −2.4 fold | FC C-type (calcium dependent, carbohydrate recognition domain) lectin, superfamily member 8 (Clecsf8), NM_010819 (mouse heart, vs isoproterenol only (CH), CH vs normal 10.8): −1.7 fold | FC Lysyl oxidase (Lox), NM_010728 (mouse heart, vs isoproterenol only (CH), CH vs normal 11.1): −2.4 fold | FC FK506 binding protein 5 (51 kDa) (Fkbp5), BC015260 (mouse heart, vs isoproterenol only (CH), CH vs normal 16.3): −1.6 fold | FC Lipocalin 2 (Lcn2), X14607 (mouse heart, vs isoproterenol only (CH), CH vs normal 27.7): −1.6 fold | FC Serine protease inhibitor 2-2 (Spi2-2) (Serpin3n), NM_009252 (mouse heart, vs isoproterenol only (CH), CH vs normal 40.5): −2.3 fold | FC Metallophosphoesterase domain containing 2 (Mpped2), AK012553 (mouse heart, vs isoproterenol only (CH), CH vs normal −1.5): 1.6 fold | FC cDNA, BM229539 (mouse heart, vs isoproterenol only (CH), CH vs normal −1.6): 1.6 fold | FC Cytoplasmic polyadenylation element binding protein 3 (Cpeb3), BB281000 [2]: 1.8 fold | FC EphrinB3 (Efnb3), BQ175608 [2]: 1.5 fold | FC Nuclear factor IB (Nfib), BB092799 [2]: 2.0 fold | FC Preimplantation protein 4 (Prei4), BB550273 [2]: 1.7 fold | FC Triple futional domain (PTPRF interacting) (Trio), BB794936 [2]: 1.7 fold | FC EST, BB126796 [3]: 2.2 fold | FC EST, BB451134 [3]: 2.2 fold | FC Metastasis suppressor 1 (Mtss1), BB326749 [3]: 1.6 fold | FC Tetratricopeptide repeat domain (Ttc3), BB833716 [3]: 2.0 fold | FC EST, BM941198 [4]: 1.7 fold | FC Jumonji, AT rich interactive domain 1A (Rbp2 like) (Jarid1a), BB376407 [4]: 1.8 fold | FC Guanine nucleotide binding protein, alpha 12 (Gna12), NM_010302 [5]: 1.6 fold | FC Zi finger and BTB domain containing 20 (Zbtb20), BB175650 [5]: 1.9 fold | FC C1q and tumor necrosis factor related protein 4 (C1qtnf4), NM_026161 [6]: 1.5 fold | FC Cold inducible RNA binding protein (Cirbp), NM_007705 [6]: 2.1 fold | FC Adrenergic receptor, alpha 1b (Adra1b), NM_007416 (mouse heart, vs isoproterenol only (CH), CH vs normal −2.3): 1.6 fold | FC DNA segment, Chr 9, ERATO Doi 256, expressed, BG066667 [7]: 1.8 fold | FC Insulin degrading enzyme (Ide), AK014703 [7]: 1.9 fold | FC Sno, strawbeny notch homolog 1 (Sno1), BE947961 [7]: 1.6 fold | FC B-cell translocation gene 2, anti-proliferative (Btg2), BG965405 [8]: 1.8 fold | FC cDNA, BC026793 [8]: 1.8 fold | FC Desmoglein 2 (Dsg2), AB072269 [9]: 2.5 fold | FC Heat shock protein, 84 kDa 1 (Hsp90ab1), BI154147 [9]: 3.7 fold | FC Myocyte enhaer factor 2C (Mef2c), AI595932 [9]: 1.9 fold | FC Restin-like 2 (Rsnl2), AK018895 [9]: 1.9 fold | FC Jumonji domain containing 3 (Jmjd3), AW763746 [10]: 1.9 fold | FC cDNA (similar to integrin beta 1 binding protein 3), AK009897 [10]: 2.7 fold | FC Karyopherin (importin) beta 1 (Kpnb1), AW544889 (mouse heart, vs isoproterenol only (CH), CH vs normal −2.8): 2.3 fold | FC PPAR gamma coactivator-1beta protein (Ppargc1b), NM_133249 [11]: 2.0 fold | FC SET and MYND domain containing 1 (Smyd1), NM_009762 [11]: 1.7 fold | FC Dual specificity phosphatase 8 (Dusp8), NM_008748 [12]: 1.8 fold | FC GATA binding protein 4 (Gata4), NM_008092 [12]: 2.1 fold | FC Actin, beta, cytoplasmic (Actb), AW537707 [13]: 1.7 fold | FC Methionine sulfoxide reductase B3 (Msrb3), BB277041 [13]: 1.7 fold | FC Thymoma viral proto-oogene 1 (Akt1), M94335 [14]: 1.6 fold | FC cDNA, BB283973 [14]: 1.9 fold | FC cDNA, BB534971 (mouse heart, vs isoproterenol only (CH), CH vs normal −3.5): 1.6 fold | FC cDNA, BB026304 (mouse heart, vs isoproterenol only (CH), CH vs normal −3.8): 2.5 fold | FC Kinesin-like protein (Kif1b), D17577 (mouse heart, vs isoproterenol only (CH), CH vs normal −3.9): 1.6 fold | FC Kv channel-interacting protein 2a (Kcnip2), AF439339 (mouse heart, vs isoproterenol only (CH), CH vs normal −4.4): 2.6 fold | FC Potassium voltage-gated channel, Isk-related subfamily, member 1 (Kcne1), NM_008424 (mouse heart, vs isoproterenol only (CH), CH vs normal −4.6): 1.5 fold | FC Tumor rejection antigen gp96 (Tra1); heat shock protein 90 kDa beta (Grp94), member 1 (Hsp90b1), BE995678 (mouse heart, vs isoproterenol only (CH), CH vs normal −9.4): 2.7 fold | FC Cadherin 13 (Cdh13), AK016527 (mouse heart, vs isoproterenol only (CH), CH vs normal −10.0): 5.9 fold | number of the 472 cardiac hypertrophy-specific Combo-altered genes also altered by the drug alone (statistical parameters lifted (average fold-changes irrespective of statistical measures)): 98 | G7e protein gene, fold-change (the only gene significantly altered): −2.2 fold
